Assay results from US12458609B2 (The General Hospital Corporation, priority 2018, dated 2025).

Tests used:
[1] = in humans; cited from earlier work
rats sedated with DEX [2] = test: Recovery of consciousness (righting reflex) in rats sedated with DEX; format: in vivo; details: 8 rats, crossover; DEX 50 micrograms/kg IV over 10 min; 5 min later dextroamphetamine 3 mg/kg IV over 2 min; saline mean 92 minutes; p<0.01
Description: A randomized, blinded, crossover design was used with 8 rats. […] This difference was statistically significant (p<0.01).

rats sedated with DEX [3] = test: LFP spectrogram and electromyogram analysis in rats sedated with DEX; format: in vivo; details: infusion after DEX infusion; FIG. 3 bottom panel
Description: Spectrograms were constructed from continuous LFP recordings from the prefrontal cortex of rats. In these figures, spectral power (dB) at a given frequency (Hz) is represented by color and plotted over time.

[4] = test system: rats anesthetized with ketamine; test: Recovery of consciousness after ketamine anesthesia in rats; format: in vivo; details: 8 rats, crossover; ketamine 50 mg/kg IV over 10 min; 5 min later dextroamphetamine 3 mg/kg IV over 2 min; saline mean 6.3 minutes; p<0.05
Protocol: A randomized, blinded, crossover design was used with 8 rats. After intravenous administration of ketamine (50 mg/kg IV) over 10 minutes, all rats became unconscious. […] The difference was statistically significant (p<0.05).

rat sedated with DEX = test: Quadrant crossings in the cage after dexmedetomidine sedation (single rat); format: in vivo
Protocol: The data provided is from a single rat that underwent 3 experiments, with 3-4 days of rest between each session. FIG. 5 is a schematic of the experimental Design.
The rat received an intravenous infusion of dexmedetomidine (DEX, 50 mcg/kg) over 10 minutes, followed by a 5-minute rest period to switch medications. […] Note that 7.4 mg/kg of LDX is enzymatically cleaved to slowly release a total of 2.2 mg/kg of d-AMPH.
The cage was divided into 4 quadrants, and the number of times the rat crossed from one quadrant to another was recorded. Each data point represents the number of quadrant crossings in the cage during the preceding 15 minutes. […] By adjusting the relative doses of d-AMPH and LDX, a combination of these two drugs provided continuous, long-lasting reversal of DEX sedation, without the adverse side effects of administering a larger dose of d-AMPH, e.g., hyperactivity and large increases in heart rate and blood pressure.

[5] = test system: rats under propofol and sevoflurane anesthesia; details: Kenny et al., PLoS ONE 2015; cited from earlier work

Row | SMILES | half-life [1] | mean time to regain consciousness (rats sedated with DEX [2]) | low-frequency LFP power, consciousness and EMG activity (rats sedated with DEX [3]) | mean time to recovery of consciousness after ketamine [4] | reversal of DEX sedation (movement, quadrant crossings) (rat sedated with DEX; DEX 50 mcg/kg IV over 10 min, d-AMPH 0.8 mg/kg alone, 2-minute IV infusion, FIG. 6) | time after which re-sedation occurred (rat sedated with DEX; DEX 50 mcg/kg IV, d-AMPH 0.8 mg/kg IV alone) | reversal of general anesthesia [5]
1 | Cc1cccc([C@H](C)c2cnc[nH]2)c1C [DEX, Dexmedetomidine] | approximately 2 hours | – | – | – | – | – | –
2 | C[C@H](N)Cc1ccccc1 [dextroamphetamine] | – | 1.7 min | rapidly decreased low-frequency LFP power, which coincided with return of consciousness (ROC) and increased EMG activity | 11.6 min | initially woke up and moved around | 30 min | reverse propofol and sevoflurane anesthesia
